# In PubChem BioAssay AID1259408 (Genetic Toxicology Data Bank (GENE-TOX), 2018):
# Active and inactive are the calls of the source. The rule behind the calls is not given here.
# Test system: GENE-TOX genotoxicity assays, various organisms and cells
# Experiment: GENE-TOX mutagenicity studies
# Conditions: for call: Assay Type: In vivo carcinogenicity studies
# [1] = Species/Cell Type: Human, Assay Type: Sister-chromatid exchange (SCE) in vitro, Assay Code: SC1+D, Dose Response: With dose response, Evaluation Type: Evaluation B (Post-1980)
# [2] = Species/Cell Type: Nonhuman, Assay Type: Sister-chromatid exchange (SCE) in vitro, Assay Code: SC2+D, Dose Response: With dose response, Evaluation Type: Evaluation B (Post-1980)
# [3] = Species/Cell Type: Salmonella typhimurium (one or more of the five standard strains: TA98, TA100, TA1535, TA1537, and TA1538), Assay Type: Histidine reverse gene mutation, Ames assay, Assay Code: SAL+, Evaluation Type: Evaluation A (Pre-1980)
# [4] = Species/Cell Type: Drosophila melanogaster, Assay Type: Sex-linked recessive lethal gene mutation, Assay Code: SRL+, Evaluation Type: Evaluation A (Pre-1980)
# [5] = Species/Cell Type: Human lymphocytes, Assay Type: Sister-chromatid exchange (SCE) in vitro, Assay Code: SCL+D, Dose Response: With dose response, Evaluation Type: Evaluation B (Post-1980)
# [6] = Species/Cell Type: Drosophila melanogaster, Assay Type: Sex-linked recessive lethal gene mutation, Assay Code: SRLT, Evaluation Type: Evaluation A (Pre-1980)
# [7] = Species/Cell Type: Saccharomyces cerevisiae, Assay Type: Mitotic recombination or gene conversion, Assay Code: YEH-, Evaluation Type: Evaluation A (Pre-1980)
# [8] = Species/Cell Type: Human lymphocytes or leukocytes, Assay Type: Chromosome aberrations in vitro, Assay Code: CY7+, Evaluation Type: Evaluation A (Pre-1980)
# [9] = Species/Cell Type: Nonhuman, Assay Code: CCG+, Evaluation Type: Evaluation A (Pre-1980)
# [10] = Species/Cell Type: Salmonella typhimurium (one or more of the five standard strains: TA98, TA100, TA1535, TA1537, and TA1538), Assay Type: Histidine reverse gene mutation, Ames assay, Assay Code: SAL+*, Activation: With metabolic activation, Evaluation Type: Evaluation A (Pre-1980)
# [11] = Species/Cell Type: Bacillus subtilis (H17 vs M45), Assay Type: Rec-assay, spot test, DNA effects (bacterial DNA repair), Assay Code: REW+, Evaluation Type: Evaluation A (Pre-1980)
compound,measurement,setting,value
c1ccc2c(c1)cc1c3c2ccc2cccc(c23)C2OC12 (stereo unspecified),mutagenic call,"Species/Cell Type: Chinese hamster lung (V79) cells, Assay Type: Forward gene mutation at the HPRT or ouabain locus, Assay Code: V79+, Evaluation Type: Evaluation A (Pre-1980)",active; positive
same,mutagenic call,"Species/Cell Type: Human diploid fibroblasts, Assay Type: Unscheduled DNA synthesis (UDS) in vitro, DNA effects, Assay Code: UDH+, Evaluation Type: Evaluation A (Pre-1980)",active; positive
same,mutagenic call,[1],active; positive
same,mutagenic call,"Species/Cell Type: Mouse prostate cells, Assay Type: Cell transformation, Assay Code: CTM+, Evaluation Type: Evaluation A (Pre-1980)",active; positive
same,call,"Species/Cell Type: Nonhuman, Assay Code: CCGT, Evaluation Type: Evaluation A (Pre-1980)",no conclusion
same,mutagenic call,[2],active; positive
same,mutagenic call,"Species/Cell Type: Saccharomyces cerevisiae, Assay Type: Mitotic recombination or gene conversion, Assay Code: YEH+, Evaluation Type: Evaluation A (Pre-1980)",active; positive
same,mutagenic call,[3],active; positive
same,mutagenic call,"Species/Cell Type: Syrian hamster embryo (SHE) cells, Assay Type: Cell transformation, clonal assay, Assay Code: CTC+, Evaluation Type: Evaluation A (Pre-1980)",active; positive
CN(C)P(=O)(N(C)C)N1CC1,mutagenic call,[4],active; positive
same,mutagenic call,[5],active; positive
same,mutagenic call,[1],active; positive
same,mutagenic call,"Species/Cell Type: Nonhuman, Assay Type: Chromosome aberrations in vitro, Assay Code: CY&+, Evaluation Type: Evaluation A (Pre-1980)",active; positive
C=CCc1ccccc1O,mutagenic call,"Species/Cell Type: Human lymphocytes, Assay Type: Sister-chromatid exchange (SCE) in vitro, Assay Code: SCLT, Evaluation Type: Evaluation B (Post-1980)",no conclusion
same,mutagenic call,"Species/Cell Type: Human, Assay Type: Sister-chromatid exchange (SCE) in vitro, Assay Code: SC1T, Evaluation Type: Evaluation B (Post-1980)",no conclusion
Clc1ccc(Cl)c(-c2cc(Cl)ccc2Cl)c1,mutagenic call,"Species/Cell Type: Salmonella typhimurium (one or more of the five standard strains: TA98, TA100, TA1535, TA1537, and TA1538), Assay Type: Histidine reverse gene mutation, Ames assay, Assay Code: SALT, Evaluation Type: Evaluation A (Pre-1980)",no conclusion
OCSc1ncc[nH]1,mutagenic call,"Species/Cell Type: Arabidopsis species, Assay Type: Gene mutation, Assay Code: ARM-, Evaluation Type: Evaluation A (Pre-1980)",inactive; negative
[Cl][Ce]([Cl])[Cl],mutagenic call,"Species/Cell Type: Bacillus subtilis (H17 vs M45), Assay Type: Rec-assay, spot test, DNA effects (bacterial DNA repair), Assay Code: REW-, Evaluation Type: Evaluation A (Pre-1980)",inactive; negative
CN(C)Cc1cc(Br)ccc1OCC(=O)N/N=C/c1ccccc1O,mutagenic call,"Species/Cell Type: Saccharomyces cerevisiae, Assay Type: Reverse gene mutation, Assay Code: YERT, Evaluation Type: Evaluation A (Pre-1980)",no conclusion
O=C[C@H](O)[C@@H](O)[C@H](O)[C@H](S)CO,mutagenic call,"Species/Cell Type: Rodents, Sex: Male, Assay Type: Dominant lethal test, Assay Code: DLT-, Evaluation Type: Evaluation A (Pre-1980)",inactive; negative
C=CCn1c(Cl)c(CC)c(=O)n(CC)c1=O,mutagenic call,[6],no conclusion
CCS(=O)CCSP(=S)(OC)OC (stereo unspecified),mutagenic call,[6],no conclusion
Cc1ccc2cc3c(cc(-c4ccccc4O)c4ccccc43)c3c2c1CC3,mutagenic call,"Species/Cell Type: Chinese hamster lung (V79) cells, Assay Type: Forward gene mutation at the HPRT or ouabain locus, Assay Code: V79-, Evaluation Type: Evaluation A (Pre-1980)",inactive; negative
c1ccc(-c2ccccc2)cc1,mutagenic call,"Species/Cell Type: Human diploid fibroblasts, Assay Type: Unscheduled DNA synthesis (UDS) in vitro, DNA effects, Assay Code: UDH-, Evaluation Type: Evaluation A (Pre-1980)",inactive; negative
same,mutagenic call,"Species/Cell Type: Nonhuman, Assay Type: Sister-chromatid exchange (SCE) in vitro, Assay Code: SC2+D, Dose Response: With dose response, Evaluation Type: Evaluation A (Pre-1980)",active; positive
same,mutagenic call,"Species/Cell Type: Rat primary hepatocytes, Assay Type: Unscheduled DNA synthesis (UDS) in vitro, DNA effects, Assay Code: UDP-, Evaluation Type: Evaluation A (Pre-1980)",inactive; negative
same,mutagenic call,[7],inactive; negative
Oc1c(I)cc(Cl)c2cccnc12,mutagenic call,"Species/Cell Type: Neurospora crassa, Assay Type: Aneuploidy, chromosome aberrations, Assay Code: NEN-, Evaluation Type: Evaluation A (Pre-1980)",inactive; negative
Clc1ccc(N=Nc2ccc(Cl)c(Cl)c2)cc1Cl,mutagenic call,"Species/Cell Type: Aspergillus nidulans, Assay Type: Forward gene mutation, Assay Code: ASF+, Evaluation Type: Evaluation A (Pre-1980)",active; positive
same,mutagenic call,"Species/Cell Type: Rat primary hepatocytes, Assay Type: Unscheduled DNA synthesis (UDS) in vitro, DNA effects, Assay Code: UDP+D, Dose Response: With dose response, Evaluation Type: Evaluation A (Pre-1980)",active; positive
O[As](O)O,mutagenic call,"Species/Cell Type: Escherichia coli WP2, Assay Type: Tryptophan reverse gene mutation, Assay Code: WP2-, Evaluation Type: Evaluation A (Pre-1980)",inactive; negative
same,mutagenic call,[8],active; positive
Nc1ccc(-c2ccc(N)c(Cl)c2)cc1Cl,mutagenic call,"Species/Cell Type: Fischer rat embryo (RLV/1706) cells, Assay Type: Cell transformation, viral enhanced, Assay Code: CTR+, Evaluation Type: Evaluation A (Pre-1980)",active; positive
same,mutagenic call,"Species/Cell Type: Human diploid fibroblasts, Assay Type: Unscheduled DNA synthesis (UDS) in vitro, DNA effects, Assay Code: UDHT, Evaluation Type: Evaluation A (Pre-1980)",no conclusion
same,mutagenic call,"Species/Cell Type: Mammalian polychromatic erythrocytes, Assay Type: Micronucleus test, chromosome aberrations, Assay Code: MNT+, Evaluation Type: Evaluation B (Post-1980)",active; positive
same,call,[9],active; positive
same,mutagenic call,[10],active; positive
same,mutagenic call,[3],active; positive
same,mutagenic call,"Species/Cell Type: Syrian hamster embryo (SA7/SHE) cells, Assay Type: Cell transformation, viral enhanced, Assay Code: CT7+, Evaluation Type: Evaluation A (Pre-1980)",active; positive
CCCOC1=C(N2CC2)C(=O)C(OCCC)=C(N2CC2)C1=O,mutagenic call,[4],active; positive
same,mutagenic call,[5],active; positive
same,mutagenic call,[1],active; positive
O=C1NCCN1/N=C/c1ccc([N+](=O)[O-])o1,call,[9],active; positive
CCCCSC(=Nc1cccnc1)SCc1ccc(C(C)(C)C)cc1,mutagenic call,"Species/Cell Type: Salmonella typhimurium, Assay Type: Forward and reverse gene mutation, host-mediated assay, Assay Code: HMA-, Evaluation Type: Evaluation A (Pre-1980)",inactive; negative
O.O.O.O.O.O.[Cl-].[Cl-].[Cl-].[Fe+3],mutagenic call,"Species/Cell Type: Nonhuman, Assay Type: Sister-chromatid exchange (SCE) in vitro, Assay Code: SC2-, Evaluation Type: Evaluation B (Post-1980)",inactive; negative
c1ccc2ncccc2c1,mutagenic call,[2],active; positive
same,mutagenic call,"Species/Cell Type: Nonhuman, Assay Type: Sister-chromatid exchange (SCE) in vitro, Assay Code: SC2-, Evaluation Type: Evaluation A (Pre-1980)",inactive; negative
same,mutagenic call,[10],active; positive
Nc1ccccc1Cl,mutagenic call,"Species/Cell Type: Escherichia coli polA (W3119 vs P3478), Assay Type: Rec-assay, DNA effects (bacterial DNA repair), Assay Code: RE1+, Evaluation Type: Evaluation A (Pre-1980)",active; positive
same,mutagenic call,"Species/Cell Type: Mouse, Sex: Male, Assay Type: Sperm morphology, Assay Code: SPI-, Evaluation Type: Evaluation A (Pre-1980)",inactive; negative
same,mutagenic call,[7],inactive; negative
same,mutagenic call,"Species/Cell Type: Syrian hamster embryo (SHE) cells, Assay Type: Cell transformation, clonal assay, Assay Code: CTC-, Evaluation Type: Evaluation A (Pre-1980)",inactive; negative
O=CNNc1nc(-c2ccc([N+](=O)[O-])o2)cs1,mutagenic call,[11],active; positive
same,mutagenic call,"Species/Cell Type: Escherichia coli WP2, Assay Type: Tryptophan reverse gene mutation, Assay Code: WP2+, Evaluation Type: Evaluation A (Pre-1980)",active; positive
same,mutagenic call,"Species/Cell Type: Escherichia coli WP2 UVRA, Assay Type: Tryptophan reverse gene mutation, Assay Code: WPU+, Evaluation Type: Evaluation A (Pre-1980)",active; positive
same,mutagenic call,"Species/Cell Type: Mouse, Sex: Male, Assay Type: Sperm morphology, Assay Code: SPI+, Evaluation Type: Evaluation A (Pre-1980)",active; positive
same,call,[9],active; positive
same,mutagenic call,[3],active; positive
Cc1cc(O)c2c(c1O)C(=O)C13C(=C2O)C(=O)C2C(O)C1C1C(O)C3C(=O)C3=C(O)c4c(O)cc(C)c(O)c4C(=O)C321 (stereo unspecified),mutagenic call,[11],active; positive
same,mutagenic call,[8],active; positive
same,call,"Species/Cell Type: Nonhuman, Assay Code: CCG+L, Evaluation Type: Evaluation A (Pre-1980)",active; positive
